Consider 20 compounds from patent US8026257B2 (Bristol-Myers Squibb Company, priority 2007, dated 2011).

One assay has as its target T1, NK-1 (Homo sapiens, UniProt P25103).
T1 construct: 30 ul/well of a 2×U373 membrane preparation
Description: NK1 radioligand binding assay ([125I]Substance P, U373 membranes). Particulars: U373 cell membranes, 200 pM [125I]Substance P, 1 hour at room temperature. As for the experimental part:
(§1) NK-1 Binding assay. Crude membrane suspensions were prepared for the NK1 and SERT radioligand binding assays from U373 cells or recombinant HEK-293 cells expressing hSERT, respectively. Cells were harvested from T-175 flasks as follows. The medium is removed from the flasks and the cells rinsed with HBSS without Ca and without Mg. The cells are then incubated for 5-10 minutes in 10 mM Tris-Cl, pH 7.5, 5 mM EDTA before the cells are lifted with a combination of pipetting and scraping, as needed. To prepare membranes, the cell suspension is collected into centrifuge bottles and homogenized for 30 seconds with a Polytron homogenizer. The suspension is centrifuged for 30 min@32,000×g, 4° C., then the supernatant is decanted and the pellet resuspended and homogenized in 50 mM Tris-Cl, pH 7.5, 1 mM EDTA for 10 seconds. The suspension is then centrifuged again for 30 min@32,000×g, 4° C. The supernatant is decanted and the pellet resuspended in 50 mM Tris-Cl, pH 7.5, 1 mM EDTA and briefly homogenized. A Bradford assay (Bio-rad) is performed and the membrane preparation diluted to 2 mg/ml with 50 mM Tris-Cl, pH 7.5, 1 mM EDTA. Aliquots are prepared, and then frozen and stored at −80° C.
NK1 radioligand binding assay. Compounds are dissolved in 100% DMSO at a concentration 100× the desired highest assay concentration, serially diluted 1:3 in 100% DMSO, and 0.6 ul/well of each solution is dispensed to a Nunc polypropylene, round bottom, 384 well plate. 100% inhibition is defined with 0.6 ul/well of 1 mM L-733,060 (Sigma L-137) dissolved in DMSO. 30 ul/well of a 2×U373 membrane preparation (267 ug/ml in 100 mM Tris-Cl, pH 7.5, 6 mM MgCl2, 0.2% (v/v) Sigma mammalian protease inhibitor cocktail (Sigma P-8340), and 4 ug/ml chymostatin, Sigma C-7268) and 30 ul/well of a 2× radioligand solution (400 pM [^125I]Substance P (Perkin ElmerNEX-190) in 1% (w/v) BSA (Sigma A-2153), 0.1 mg/ml bacitracin, Sigma B-0125) are added to the well and the reaction incubated for 1 hour at room temperature. The contents of the assay plate are then transferred to a Millipore MultiscreenHTS GF/B filter plate which has been pretreated with 0.5% PEI for at least one hour. The plate is vacuum filtered and washed with 7 washes of 100 ul/well of 20 mM Tris-Cl, pH 7.5, 0.5% (w/v) BSA chilled to 4° C. The filtration and washing is completed in less than 90 s. The plates are air-dried overnight, 12 ul/well of MicroScint scintillation fluid added, and the plates counted in a Trilux.
(§2) Data analysis. The raw data are normalized to percent inhibition using control wells defining 0% (DMSO only) and 100% (selective inhibitor) inhibition which are run on each plate. Each plate is run in triplicate, and the concentration response curve thus generated is fit using the four-parameter dose response equation, Y=Bottom+(Top-Bottom)/(1+10^((LogIC50−X)*HillSlope)) in order to determine the IC50 value for each compound. The radioligand concentration chosen for each assay corresponds to the Kd concentration determined through saturation binding analysis for each assay.

A further assay deals with hSERT (Homo sapiens, UniProt P31645). Nature of the assay: SERT radioligand binding assay ([125I]RTI-55, HEK-hSERT membranes). Particulars: HEK-293 hSERT membranes, 260 pM [125I]RTI-55, 1 hour at room temperature; read-out: SERT IC50. As for the experimental part: as §1
SERT radioligand binding assay. Compounds are dissolved in 100% DMSO at a concentration 100× the desired highest assay concentration, serially diluted 1:3 in 100% DMSO, and 0.4 ul/well of each solution is dispensed to a Nunc polypropylene, round bottom, 384 well plate. 100% inhibition is defined with 0.4 ul/well of 1 mM fluoxetine (Sigma F-132) dissolved in DMSO. 20 ul/well of a 2× HEK-hSERT membrane preparation (15 ug/ml in 50 mM Tris-Cl, pH 7.5, 120 mM NaCl, 5mM KCl) and 20 ul/well of a 2× radioligand solution (520 pM [^125I]RTI-55 (Perkin-Elmer NEX-272) in 50 mM Tris-Cl, pH 7.5, 120 mM NaCl, 5mM KCl) are added to each well and the reaction incubated for 1 hour at room temperature. The contents of the assay plate are then transferred to a Millipore MultiscreenHTs GF/B filter plate which has been pretreated with 0.5% PEI for at least one hour. The plate is vacuum filtered and washed with 7 washes of 100 ul/well of 50 mM Tris-Cl, pH 7.5, 120 mM NaCl, 5 mM KCl chilled to 4° C. The filtration and washing is completed in less than 90 s. The plates are air-dried overnight, 12 ul/well of MicroScint scintillation fluid added, and the plates counted in a Trilux.
as §2

The structures appear in SMILES notation.

T1 sequence (P25103 whole entry): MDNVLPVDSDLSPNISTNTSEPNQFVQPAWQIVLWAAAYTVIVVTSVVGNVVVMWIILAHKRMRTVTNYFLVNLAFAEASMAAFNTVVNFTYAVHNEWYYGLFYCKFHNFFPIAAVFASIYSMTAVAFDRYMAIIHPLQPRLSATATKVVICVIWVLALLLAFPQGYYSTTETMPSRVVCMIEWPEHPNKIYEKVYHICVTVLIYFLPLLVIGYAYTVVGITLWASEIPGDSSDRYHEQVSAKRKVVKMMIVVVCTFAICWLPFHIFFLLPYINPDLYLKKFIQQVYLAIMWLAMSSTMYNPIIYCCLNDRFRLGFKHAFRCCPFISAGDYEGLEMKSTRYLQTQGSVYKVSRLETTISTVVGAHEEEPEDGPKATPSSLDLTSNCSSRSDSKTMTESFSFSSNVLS
hSERT, sequence (P31645 whole entry): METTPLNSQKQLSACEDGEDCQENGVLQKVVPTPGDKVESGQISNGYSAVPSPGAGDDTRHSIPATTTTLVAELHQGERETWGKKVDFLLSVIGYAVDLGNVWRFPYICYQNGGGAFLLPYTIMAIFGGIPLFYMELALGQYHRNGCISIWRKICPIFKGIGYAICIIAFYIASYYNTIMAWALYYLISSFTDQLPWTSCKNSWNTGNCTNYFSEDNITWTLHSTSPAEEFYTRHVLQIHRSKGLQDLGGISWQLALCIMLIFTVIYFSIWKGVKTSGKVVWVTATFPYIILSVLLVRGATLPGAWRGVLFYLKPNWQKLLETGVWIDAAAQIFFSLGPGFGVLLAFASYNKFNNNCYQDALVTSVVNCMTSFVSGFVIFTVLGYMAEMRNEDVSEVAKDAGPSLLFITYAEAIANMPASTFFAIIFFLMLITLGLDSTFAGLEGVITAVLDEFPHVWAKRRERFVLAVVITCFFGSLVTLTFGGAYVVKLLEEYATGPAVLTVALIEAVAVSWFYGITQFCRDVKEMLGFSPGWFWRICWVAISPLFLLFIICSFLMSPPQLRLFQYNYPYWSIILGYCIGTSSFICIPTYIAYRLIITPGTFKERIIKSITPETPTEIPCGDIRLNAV

Turning to `Cc1cc(C(C)OCC2(c3ccc(F)cc3)CCN(C)CC2)c2[nH]ncc2c1` (racemic) [Example 49, (±)-7-(1-((4-(4-Fluorophenyl)-1-methylpiperidin-4-yl)methoxy)ethyl)-5-methyl-1H-indazole], the IC50 on NK-1 and at hSERT was 0.01 to 100 nM each time.

Take `CC(OCC1(c2ccc(F)cc2)CCN(C)CC1)c1cc(N2CCOCC2)cc2cn[nH]c12` (racemic) [Example 50, (±)-4-7-(1-((4-(4-Fluorophenyl)-1-methylpiperidin-4-yl)methoxy)ethyl)-1H-indazole-5-yl)morpholino]: the IC50 lay in the range of 100 to 300 nM at NK-1 and 0.01 to 100 nM on hSERT.

For `COc1cc(C(C)OCC2(c3ccc(F)cc3)CCN(C)CC2)c2[nH]ncc2c1` (racemic) [Example 52, (±)-7-(1-((4-(4-Fluorophenyl)-1-methylpiperidin-4-yl)methoxy)ethyl)-5-methoxy-1H-indazole], the IC50 at NK-1 and at hSERT was 0.01 to 100 nM in each case.

For `CC(OCC1(c2ccc(F)cc2)CCN(C)CC1)c1cc(F)cc2cn[nH]c12` (racemic) [Example 53, (±)-5-Fluoro-7-(1-((4-(4-fluorophenyl)-1-methylpiperidin-4-yl)methoxy)ethyl)-1H-indazole], the IC50 on NK-1 and at hSERT was 0.01 to 100 nM in each case.

`Cc1n[nH]c2c(C(C)OCC3(c4ccc(F)cc4)CCN(C)CC3)cc(Cl)cc12` (racemic) [Example 55, (±)-5-Chloro-7-(1-((4-(4-fluorophenyl)-1-methylpiperidin-4-yl)methoxy)ethyl)-3-methyl-1H-indazole]: the IC50 at NK-1 and at hSERT was 0.01 to 100 nM in each case.

`CC(OCC1(c2ccc(F)cc2)CCN(C)CC1)c1cc(Cl)cc2c(C3CC3)n[nH]c12` (racemic) [Example 56, (±)-5-Chloro-3-cyclopropyl-7-(1-((4-(4-fluorophenyl)-1-methylpiperidin-4-yl)methoxy)ethyl)-1H-indazole]: the half-maximal inhibitory concentration (IC50) at NK-1 and on hSERT was 0.01 to 100 nM in each case.

Regarding `CC(OCC1(c2ccc(F)cc2)CCN(C)CC1)c1cc(Cl)cc2c(Br)n[nH]c12` (racemic) [Example 57, (±)-3-Bromo-5-chloro-7-(1-((4-(4-fluorophenyl)-1-methylpiperidin-4-yl)methoxy)ethyl)-1H-indazole], the IC50 at NK-1 and at hSERT was 0.01 to 100 nM throughout.

For `CC(OCC1(c2ccc(F)cc2)CCN(C)CC1)c1cc(Cl)cc2cn(C3CC3)nc12` (racemic) [Example 58, (±)-5-Chloro-2-cyclopropyl-7-(1-((4-(4-fluorophenyl)-1-methylpiperidin-4-yl)methoxy)ethyl)-2H-indazole], the IC50 on NK-1 and at hSERT was 0.01 to 100 nM in each case.

`CC(OCC1(c2ccc(F)cc2)CCN(C)CC1)c1cc(Cl)cc2c(Cl)n[nH]c12` (racemic) [Example 59, (±)-3,5-Dichloro-7-(1-((4-(4-fluorophenyl)-1-methylpiperidin-4-yl)methoxy)ethyl)-1H-indazole]: the IC50 on NK-1 and at hSERT was 0.01 to 100 nM in each case.

Take `Cc1cc(C(C)OCC2(c3ccc(F)cc3)CCN(C)CC2)c2c(cnn2CC(F)F)c1` (racemic) [Example 60, (±)-1-(2,2-Difluoroethyl)-7-(1-((4-(4-fluorophenyl)-1-methylpiperidin-4-yl)methoxy)ethyl)-5-methyl-1H-indazole]: the 50% inhibitory concentration (IC50) on NK-1 and on hSERT was 0.01 to 100 nM in each case.

`Cc1cc(C(C)OCC2(c3ccc(F)cc3)CCN(C)CC2)c2nn(CC(F)F)cc2c1` (racemic) [Example 61, (±)-2-(2,2-Difluoroethyl)-7-(1-((4-(4-fluorophenyl)-1-methylpiperidin-4-yl)methoxy)ethyl)-5-methyl-2H-indazole]: the IC50 at NK-1 and at hSERT was 0.01 to 100 nM in each case.

As to `Cc1cc(C(C)OCC2(c3ccc(F)cc3)CCN(C)CC2)c2c(cnn2CC2CC2)c1` (racemic) [Example 62, (±)-1-(Cyclopropylmethyl)-7-(1-((4-(4-fluorophenyl)-1-methylpiperidin-4-yl)methoxy)ethyl)-5-methyl-1H-indazole], the IC50 on NK-1 and at hSERT was 0.01 to 100 nM throughout.

For `Cc1cc(C(C)OCC2(c3ccc(F)cc3)CCN(C)CC2)c2nn(CC3CC3)cc2c1` (racemic) [Example 63, (±)-2-(Cyclopropylmethyl)-7-(1-((4-(4-fluorophenyl)-1-methylpiperidin-4-yl)methoxy)ethyl)-5-methyl-2H-indazole], the IC50 on NK-1 and at hSERT was 0.01 to 100 nM each time.

Take `Cc1cc(C(C)OCC2(c3ccc(F)cc3)CCN(C)CC2)c2c(cnn2C2CC2)c1` (racemic) [Example 64, (±)-1-Cyclopropyl-7-(1-((4-(4-fluorophenyl)-1-methylpiperidin-4-yl)methoxy)ethyl)-5-methyl-1H-indazole]: the IC50 on NK-1 and on hSERT was 0.01 to 100 nM in each case.

With `CC(OCC1(c2ccccc2)CCN(C)CC1)c1cc(C(F)(F)F)cc2cc[nH]c12` (racemic) [Example 70, (±)-7-(1-((1-Methyl-4-phenylpiperidin-4-yl)methoxy)ethyl)-5-(trifluoromethyl)-1H-indole], the IC50 lay in the range of 0.01 to 100 nM at NK-1 and 100 to 300 nM on hSERT.

In the case of `CC(OCC1(c2ccccc2)CCN(C)CC1)c1cc(C(F)(F)F)cc2ccn(C)c12` (racemic) [Example 71, (±)-1-Methyl-7-(1-((1-methyl-4-phenylpiperidin-4-yl)methoxy)ethyl)-5-(trifluoromethyl)-1H-indole], the IC50 at NK-1 and on hSERT was 0.01 to 100 nM each time.

Take `CC(OCC1(c2ccc(F)cc2)CCN(C)CC1)c1cc(C(F)(F)F)cc2cc[nH]c12` (racemic) [Example 72, (±)-7-(1-((4-(4-Fluorophenyl)-1-methylpiperidin-4-yl)methoxy)ethyl)-5-(trifluoromethyl)-1H-indole]: the IC50 on NK-1 and on hSERT was 0.01 to 100 nM throughout.

On to `CC(OCC1(c2ccc(F)cc2)CCN(C)CC1)c1cc(C(F)(F)F)cc2ccn(C)c12` (racemic) [Example 73, (±)-7-(1-((4-(4-Fluorophenyl)-1-methylpiperidin-4-yl)methoxy)ethyl)-1-methyl-5-(trifluoromethyl)-1H-indole], for which the IC50 at NK-1 and at hSERT was 0.01 to 100 nM in each case.

On to `CC(OCC1(c2ccc(F)cc2)CCN(C)CC1)c1cc(C(F)(F)F)cc2c1NC(=O)C2` (racemic) [Example 123, (±)-7-(1-((4-(4-fluorophenyl)-1-methylpiperidin-4-yl)methoxy)ethyl)-5-(trifluoromethyl)indolin-2-one], for which the half-maximal inhibitory concentration (IC50) on NK-1 and at hSERT was 0.01 to 100 nM throughout.

For `CC(OCC1(c2ccc(F)cc2)CCN(C)CC1)c1cc(Cl)cc2c(C#N)c[nH]c12` (racemic) [Example 124, (±)-5-chloro-7-(1-((4-(4-fluorophenyl)-1-methylpiperidin-4-yl)methoxy)ethyl)-1H-indole-3-carbonitrile], the IC50 on NK-1 and on hSERT was 0.01 to 100 nM each time.

For orientation: IC50 means the midpoint of a concentration-inhibition curve.
